Values after ≈ are worked out from the molar mass of the structure shown.
Columns and labels:
[1] = Liquid formulations (oral solutions/suspensions); type: physicochemical; conditions: certain solvent systems, below pH values of about 9-10
Procedure: Values of pH reported were estimated based on pH indicating strips. […] Accordingly, provided in certain embodiments herein were formulations having a pH above about 9, above about 10 or of about 10. In certain embodiments, the formulation was buffered at a pH of about 10. All formulations prepared were sonicated for about 10 minutes.

[2] = tested on: whole blood ionophore-stimulated leukotriene LTB4; assay: Phase I study, whole blood ionophore-stimulated LTB4; type: in vivo, human
Excerpt: Study Design: Single center, double-blind, randomized, placebo-controlled, single ascending dose followed by multiple ascending dose study.
Sample Size: (1) Single Dose Phase: eight (8) subjects (6 active, 2 placebo) per dose level; up to 5 dose levels are planned (a total of 40 subjects if all 5 dose levels are completed); and (2) Multiple Dose Phase: eight (8) subjects (6 active, 2 placebo) per dose level; up to 4 dose levels are planned (a total of 32 subjects if all 4 dose levels are completed).
Formulations: Compound 2 was supplied as an oral powder for reconstitution. Placebo solution matched. […] The placebo differed only in the absence of the active.
The following dosing cohorts were used:
Routes of Administration: All doses were administered orally with approximately 100 mL of water rinse. Subjects were fasted for at least 8 hours prior to dosing and for 2 hours after dosing. For BID dosing in the Multiple Dose Phase, when applicable, subjects were fasted for at least 2 hours prior to the second daily dose.
Plasma concentrations of Compound 1 were determined using a validated LC/MS method. Whole blood ionophore-stimulated leukotriene LTB4 and urinary LTE4 production were assayed by ELISA and mass spectrometry, respectively.
Analysis of Samples: Concentrations of Compound 1 was determined in plasma samples collected from subjects. Similarly, concentrations of LTB4 in plasma and urinary LTE4 were determined in blood and urine samples collected.

chronic asthma = conditions: clinical studies; cited from earlier work
[3] = tested on: allergen-induced early and late phases of lung-volume decline; conditions: clinical trials; cited from earlier work
[4] = Gravimetric Vapour Sorption (GVS); type: physicochemical; conditions: after the full sorption/desorption cycle
[5] = Thermodynamic Aqueous Solubility by HPLC; type: physicochemical; conditions: water, 25° C.
Procedure: Aqueous solubility was determined by suspending sufficient compound in water to give a maximum final concentration of ≧10 mg·ml^−1 of the parent free-form of the compound. The suspension was equilibrated at 25° C. for 24 hours then the pH was measured. The suspension was then filtered through a glass fibre C filter into a 96 well plate. The filtrate was then diluted by a factor of 101. Quantitation was by HPLC with reference to a standard solution of approximately 0.1 mg·ml^−1 in DMSO. Different volumes of the standard, diluted and undiluted sample solutions were injected. The solubility was calculated using the peak areas determined by integration of the peak found at the same retention time as the principal peak in the standard injection.
Analysis was performed on an Agilent HP1100 series system equipped with a diode array detector and using ChemStation software vB.02.01-SR1.

[6] = rat, in vivo, po

CCOc1ccc(-c2ccc(Cn3c(CC(C)(C)C(=O)O)c(SC(C)(C)C)c4cc(OCc5ccc(C)cn5)ccc43)cc2)cn1 [Compound 1, 3-[3-(tert-butylsulfanyl)-1-[4-(6-ethoxy-pyridin-3-yl)benzyl]-5-(5-methyl-pyridin-2-yl-methoxy)-1H-indol-2-yl]-2,2-dimethylpropanoic acid]
solubility in words [1]: sparingly soluble
EC50 ([2]; Homo sapiens, dose range studied, read-out: EC50, plasma concentration vs inhibition of ionophore-stimulated LTB4 production): ~0.07 µg/mL (≈ 0.11 µM)
EC90 ([2]; Homo sapiens, dose range studied, read-out: EC90, plasma concentration vs inhibition of ionophore-stimulated LTB4 production): ~0.32 µg/mL (≈ 0.502 µM)
plasma concentration at which complete inhibition of ionophore-stimulated LTB4 production was reached ([2]; in vivo): 1000 to 1500 ng/mL

CC(c1cc2ccccc2s1)N(O)C(N)=O (centres unmarked) [Zileuton, zileuton]
efficacy in chronic asthma (chronic asthma): exhibits clinical efficacy
efficacy in allergen-challenge studies (allergen-induced early and late phases of lung-volume decline) [3]: not effective

O=C(O)[C@@H](c1ccc(OCc2ccc3ccccc3n2)cc1)C1CCCC1 [BAYX-1005]
efficacy in allergen-challenge studies (allergen-induced early and late phases of lung-volume decline) [3]: show efficacy

CC(C)c1ccc2c(c1)c(SC(C)(C)C)c(CC(C)(C)C(=O)O)n2Cc1ccc(Cl)cc1 [MK-866]
efficacy in allergen-challenge studies (allergen-induced early and late phases of lung-volume decline) [3]: show efficacy

CCOc1ccc(-c2ccc(Cn3c(CC(C)(C)C(=O)[O-])c(SC(C)(C)C)c4cc(OCc5ccc(C)cn5)ccc43)cc2)cn1.[Na+] [Amorphous Phase A]
XRPD pattern after the GVS experiment [4]: No changes were observed
Appearance of mixture after equilibration for 24 hours [5]: Suspension
Concentration of filtrate (as mg/mL of free base) ([5]; 24 hours, listed as Compound 2 Phase A): >10 mg/mL
plasma exposures [6]: equivalent plasma exposures

CC(C)(C)Sc1c(CC(C)(C)C(=O)O)n(Cc2ccc(Cl)cc2)c2ccc(OCc3ccc4ccccc4n3)cc12 [MK-0591]
efficacy in chronic asthma (chronic asthma): shows efficacy
efficacy in allergen-challenge studies (allergen-induced early and late phases of lung-volume decline) [3]: show efficacy

— patent US20110160249A1, “5-LIPOXYGENASE-ACTIVATING PROTEIN INHIBITOR” (priority 2008, published 2011)
